Tested on: PPK2
Conditions: 1 mM Pi
Excerpt: PPK2 has been detected in crude cell extracts of K.pneumoniae and E. coli.

For phosphate, the “inhibition of PPK2” value was “about 90%”.
